Measured values from article PMC9602571, “Discovery of a Dual SENP1 and SENP2 Inhibitor” (International Journal of Molecular Sciences, 2022).
Like-named read-outs stand apart in the source and are kept apart here.

Key:
[1] = target: T1, SENP1 (Homo sapiens, UniProt Q9P0U3); test: Fluorogenic SENP1 assay, SUMO2-AMC substrate; format: biochemical; conditions: n = 2
T1 construct: Human recombinant, His6-SENP1 Catalytic Domain; His6 (N); purchased Boston Biochem (Bio-Techne AG) E-700
T1 sequence (Q9P0U3 450-613 limits assumed): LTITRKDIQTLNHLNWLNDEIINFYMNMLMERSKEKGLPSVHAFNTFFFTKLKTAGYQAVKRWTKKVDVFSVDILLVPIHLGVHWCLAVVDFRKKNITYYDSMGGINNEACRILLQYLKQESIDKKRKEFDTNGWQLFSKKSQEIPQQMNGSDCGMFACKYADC
Experimental: (§1) Human recombinant, His6-SENP1 Catalytic Domain (Boston Biochem Cat# E-700, Bio-Techne AG, Zug, Switzerland) was prepared in reaction buffer (50 mM HEPES, 150 mM NaCl, 0.5 mM EDTA, 1 mM DTT, pH 7.5, 0.01% CHAPS). To this solution, a 20 mM or 50 mM inhibitor stock solution in DMSO was added and the mixture was incubated for 15 min at ambient temperature. […] The data were analyzed by taking the slope (signal/time) of the linear portion of measurement. The slope was calculated using Excel and the curve fits were performed using GraphPad Prism7 with a four-parameter least-squares fit. The final reaction conditions contained 0.02 nM SENP1 and 300 nM SUMO1/2 or 3-AMC).

[2] = target: T1, SENP1; test: Fluorogenic SENP1 assay, SUMO3-AMC substrate; format: biochemical; conditions: n = 2
Experimental: as §1

[3] = target: T2, UCHL1 (Homo sapiens, UniProt P09936); test: UCHL1 activity assay, Ubiquitin-AMC substrate; format: biochemical; conditions: n = 2
T2 construct: purchased SignalChem U22-30H
T2 sequence (P09936 1-223): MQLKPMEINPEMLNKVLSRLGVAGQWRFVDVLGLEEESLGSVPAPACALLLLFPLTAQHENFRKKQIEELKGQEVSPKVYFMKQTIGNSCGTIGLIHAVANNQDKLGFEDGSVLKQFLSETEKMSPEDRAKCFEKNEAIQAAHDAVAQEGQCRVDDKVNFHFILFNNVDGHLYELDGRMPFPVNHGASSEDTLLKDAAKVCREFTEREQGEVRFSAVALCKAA
Experimental: IC50 measurements were conducted at Reaction Biology Corporation, Malvern, PA, USA, with two replications using 10 concentrations starting at 200 μM with three-fold dilution. Curve fits were performed where the enzyme activities at the highest concentration of compounds were less than 65%. UCHL1 II was used as a control inhibitor. The procedure was performed analogous to the fluorogenic SENP2 assay described in 3.3.2. using the UCHL1 enzyme (SignalChem Cat# U22-30H) and Ubiquitin-AMC substrate (Enzo Cat# BML-SE211-0025). The final reaction conditions contained 0.2 nM UCHL1 and 100 nM Ubiquitin-AMC.

[4] = target: T1, SENP1; test: Photo crosslinking experiments with SENP1; format: binding; conditions: competitor 400 µM, probe 56 200 µM
Experimental: A buffer exchange of the commercially available 6 × His-SENP1 Protein (Boston Biochem Cat# E-700) to a 50 mM HEPES, 150 mM NaCl; 0.5 mM EDTA, 1 mM DTT, pH 7.5 was performed. A total of 200 μM of the photo affinity probe 56 with or without competitor molecule 11 (400 μM) was incubated in 10 uM SENP1 for 30 min at 0 °C. Subsequently, the mixtures were irradiated in a Proma UV exposure unit equipped with four 8 Watt lamps (Hitachi FL8BL-8, ~350 nm) for 30 min at 0 °C. Then, 50 µL of the crosslinked proteins were mixed with freshly prepared click mix solution (50 μL; 1 mM CuSO4, 1 mM TCEP, 100 uM THPTA from a 5 mM DMSO stock, dissolved in Milli-Q Water) and a 10 mM stock solution of azide fluor 545 (1 μL) and incubated at 0 °C for 14 h. […] Protein samples for SDS-PAGE were first prepared in 1 × Laemmli sample buffer (diluted from 4 × Laemmli sample buffer (ROTI®Load), and subsequently denatured at 100 °C for 15 min. After SDS-PAGE gel electrophoresis separation, the fluorescence was visualized (Ex. 520 nm, Em. 575 nm) on the SDS PAGE gel using ImageQuant^TM 4000 LAS (GE Healthcare, Chicago, IL, USA). Secondly, the gels were stained with Bio-Safe Coomassie Brilliant Blue G-250 (BioRad) for 60 min. De-staining was performed with 40% (v/v) methanol, 10% (v/v) glacial acetic acid, 50% (v/v) Milli-Q water until protein bands became visible.

[5] = target: T1, SENP1; test: Mode of inhibition study, SENP1 and SUMO1-AMC kinetic measurement; format: biochemical
Experimental: A mode of inhibition study with 11 was performed by kinetic measurement with SENP1 and SUMO1-AMC employing five different substrate concentrations (Figure 4). The IC50 values […] slightly by lowering the SUMO1-AMC substrate concentration from 1000 nM to 62.5 nM, indicating a slight binding preference to the SUMO1-SENP1 complex (Figure 4A).
IC50 measurements were performed with at least two replications using eight concentrations starting at 200 μM and for the fragments at 500 μM with three-fold dilution. Human recombinant, His6-SENP1 Catalytic Domain (Boston Biochem Cat# E-700, Bio-Techne AG, Zug, Switzerland) was prepared in reaction buffer (50 mM HEPES, 150 mM NaCl, 0.5 mM EDTA, 1 mM DTT, pH 7.5, 0.01% CHAPS). To this solution, a 20 mM or 50 mM inhibitor stock solution in DMSO was added and the mixture was incubated for 15 min at ambient temperature. The substrate SUMO1/2 or 3-AMC (SUMO1-AMC; Boston Biochem Cat# UL-551; SUMO2-AMC; Boston Biochem Cat# UL-758; SUMO3-AMC; Boston Biochem Cat# UL-768; Bio-Techne AG, Zug, Switzerland) was delivered to a 96 well-plate to initiate the reaction. The enzyme activities were monitored (Ex/Em = 355/460 nm) as a time-course measurement of the increase in fluorescence signal from SUMO1/2 or 3-AMC for 60 min at 25 °C. The data were analyzed by taking the slope (signal/time) of the linear portion of measurement. The slope was calculated using Excel and the curve fits were performed using GraphPad Prism7 with a four-parameter least-squares fit. The final reaction conditions contained 0.02 nM SENP1 and 300 nM SUMO1/2 or 3-AMC).

O=C(Cn1nnc(-c2ccccc2)n1)N1c2ccccc2NC(=O)C12CCCC2 [Compound 11, 1′-[2-(5-Phenyl-2H-1,2,3,4-tetrazol-2-yl)acetyl]-3′,4′-dihydro-1′H-spiro[cyclopentane-1,2′-quinoxalin]-3′-one]
IC50 [1]: 43 µM | IC50 [2]: 59 µM | IC50 [3]: 77 µM | fluorescently labelled band of SENP1 in competition with photo probe 56 [4]: significantly decreased | alpha (mixed inhibition model) ([5]; global Michaelis-Menten fit): 0.23 | Ki ([5]; global Michaelis-Menten fit, GraphPad Prism, read-out: KI (mixed inhibition model)): 10.6 µM | Ki ([5]; global fit, unit inferred, read-out: Ki (Figure 4B)): 10.6 µM | IC50 ([5]; substrate 62.5 nM, read-out: IC50 at SUMO1-AMC 62.5 nM): 6.65 µM | IC50 ([5]; substrate 125 nM, read-out: IC50 at SUMO1-AMC 125 nM): 5.82 µM | IC50 ([5]; substrate 250 nM, read-out: IC50 at SUMO1-AMC 250 nM): 4.72 µM | IC50 ([5]; substrate 500 nM, read-out: IC50 at SUMO1-AMC 500 nM): 4.04 µM | IC50 ([5]; substrate 1000 nM, read-out: IC50 at SUMO1-AMC 1000 nM): 3.15 µM
